Experimental data taken from patent publication US20070087009A1, “Immunostimulant composition comprising at least one toll-like receptor 7 or toll-like receptor 8 agonist and a toll-like receptor 4 agonist” (SANOFI PASTEUR, priority 2003, published 2007).

What was measured:
[1] = system: BALB/c mice; experiment: Immunization test on mice: specific IgG1 and IgG2a by ELISA; format: in vivo; settings: Tat vaccine compositions; level and dispersion of the results between mice
Procedure: 5. Immunization Test on Mice.
There are available 4 groups of 6 female BALB/c mice 8 weeks old to which one of the compositions prepared in example 4 is injected subcutaneously at the rate of a dose of 200 μl per mouse; the injections are performed on D0 and at D21.
Blood samples are collected at the retro-orbital sinus at D14 for assessing the primary response and at D32 for the secondary response. The determination of the level of specific IgG1 and IgG2a is carried out by virtue of the standard ELISA tests.
The results obtained as regards the humoral responses are summarized in the table below and in FIGS. 1 to 4, where the IgG levels are expressed as arbitrary ELISA units (log10).
For each group of mice, the value indicated in the table is the mean geometric titer of the values obtained for each of the mice.

[2] = system: dendritic cells derived from human monocytes; experiment: Stimulation of human cells in vitro: maturation markers by flow cytometry; format: cell-based; settings: 2 days culture; DPPC liposomes, R-848 2.96 μg/ml, ER804057 0.1 μg/ml; mean of 4 donors
Procedure: (§1) The capacity of the compositions according to the invention to induce the maturation of dendritic cells derived from human monocytes in vitro is evaluated for 4 independent donors. The monocytes are obtained from peripheral blood mononuclear cells and are cultured for 5-6 days in the presence of IL4 and of GM-CSF. […] There are then carried out a phenotype analysis by flow cytometry, making it possible to measure the expression of the maturation markers CD25, CD80 and CD83, and an ELISA measurement of the cytokines (TNF-α, IL6 and IL12p70) secreted by these cells. The results indicated in the tables below represent the mean values calculated for the 4 donors: […]

[3] = system: dendritic cells derived from human monocytes; experiment: Stimulation of human cells in vitro: ELISA of secreted cytokines; format: cell-based; settings: 2 days culture; DPPC liposomes, R-848 2.96 μg/ml, ER804057 0.1 μg/ml; mean of 4 donors
Procedure: as §1

[4] = target: T1, Toll-like 7 receptor (Homo sapiens, UniProt Q9NYK1); settings: cited from earlier work
T1 sequence (Q9NYK1 27-1049): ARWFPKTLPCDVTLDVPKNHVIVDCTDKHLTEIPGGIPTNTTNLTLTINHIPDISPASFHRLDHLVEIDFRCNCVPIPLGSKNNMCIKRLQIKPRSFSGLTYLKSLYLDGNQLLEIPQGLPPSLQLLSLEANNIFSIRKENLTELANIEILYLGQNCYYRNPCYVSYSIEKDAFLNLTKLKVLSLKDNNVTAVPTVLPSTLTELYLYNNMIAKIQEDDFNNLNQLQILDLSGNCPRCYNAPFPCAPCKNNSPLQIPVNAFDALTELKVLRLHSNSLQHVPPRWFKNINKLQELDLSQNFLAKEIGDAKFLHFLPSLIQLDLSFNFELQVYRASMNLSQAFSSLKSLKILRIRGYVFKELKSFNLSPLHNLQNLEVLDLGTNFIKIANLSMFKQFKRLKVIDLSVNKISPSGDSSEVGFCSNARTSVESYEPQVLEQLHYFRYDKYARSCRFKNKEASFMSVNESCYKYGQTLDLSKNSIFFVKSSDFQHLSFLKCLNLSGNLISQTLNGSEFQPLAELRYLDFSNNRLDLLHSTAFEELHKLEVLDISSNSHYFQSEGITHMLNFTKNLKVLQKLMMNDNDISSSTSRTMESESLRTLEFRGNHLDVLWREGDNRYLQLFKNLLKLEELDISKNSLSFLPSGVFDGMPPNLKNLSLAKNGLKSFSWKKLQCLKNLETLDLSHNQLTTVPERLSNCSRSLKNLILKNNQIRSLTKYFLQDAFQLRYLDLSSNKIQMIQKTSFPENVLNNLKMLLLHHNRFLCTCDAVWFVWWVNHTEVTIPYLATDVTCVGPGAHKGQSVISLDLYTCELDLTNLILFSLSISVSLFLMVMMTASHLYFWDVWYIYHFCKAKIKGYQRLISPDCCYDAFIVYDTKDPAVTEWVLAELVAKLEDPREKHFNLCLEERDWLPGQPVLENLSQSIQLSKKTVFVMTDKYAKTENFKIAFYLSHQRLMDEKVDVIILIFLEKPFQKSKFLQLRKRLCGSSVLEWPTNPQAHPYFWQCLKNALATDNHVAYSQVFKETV

[5] = target: T2, Toll-like 8 receptor (Homo sapiens, UniProt Q9NR97); settings: cited from earlier work
T2 sequence (Q9NR97 27-1041): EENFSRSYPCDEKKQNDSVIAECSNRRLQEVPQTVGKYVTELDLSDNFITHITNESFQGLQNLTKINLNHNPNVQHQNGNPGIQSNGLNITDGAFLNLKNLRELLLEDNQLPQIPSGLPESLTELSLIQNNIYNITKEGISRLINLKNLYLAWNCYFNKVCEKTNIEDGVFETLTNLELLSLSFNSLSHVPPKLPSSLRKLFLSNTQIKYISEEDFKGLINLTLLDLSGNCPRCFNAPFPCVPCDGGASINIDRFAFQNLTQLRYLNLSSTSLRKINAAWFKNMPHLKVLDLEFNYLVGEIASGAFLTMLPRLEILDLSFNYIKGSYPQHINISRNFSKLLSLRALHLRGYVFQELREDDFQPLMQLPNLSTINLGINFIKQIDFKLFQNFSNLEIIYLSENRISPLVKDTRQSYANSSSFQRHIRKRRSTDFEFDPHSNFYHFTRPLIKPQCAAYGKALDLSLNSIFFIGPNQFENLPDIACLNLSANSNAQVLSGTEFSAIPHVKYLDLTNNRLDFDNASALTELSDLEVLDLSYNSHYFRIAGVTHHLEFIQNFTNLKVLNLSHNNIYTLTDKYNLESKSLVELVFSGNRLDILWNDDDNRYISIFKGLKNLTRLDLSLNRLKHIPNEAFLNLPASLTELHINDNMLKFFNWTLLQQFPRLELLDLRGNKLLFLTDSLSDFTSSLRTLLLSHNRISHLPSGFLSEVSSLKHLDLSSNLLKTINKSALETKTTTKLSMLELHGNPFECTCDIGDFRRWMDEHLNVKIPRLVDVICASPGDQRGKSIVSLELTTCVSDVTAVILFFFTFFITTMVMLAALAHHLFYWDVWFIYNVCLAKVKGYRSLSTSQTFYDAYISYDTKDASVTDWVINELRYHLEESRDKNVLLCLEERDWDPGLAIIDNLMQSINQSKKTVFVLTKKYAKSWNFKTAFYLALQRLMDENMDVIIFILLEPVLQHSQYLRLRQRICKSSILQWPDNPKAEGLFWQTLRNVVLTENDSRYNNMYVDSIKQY

[6] = system: mice; settings: ovalbumin as antigen; cited from earlier work

Row | SMILES | IgG2a response obtained after the injection of the booster, individual mice (FIGS. 1 to 4) [1] | Percentage of cells expressing the markers CD25 [2] | Percentage of cells expressing the markers CD80 [2] | Percentage of cells expressing the markers CD83 [2] | Quantity of cytokines IL 6 [3] | Quantity of cytokines IL12p70 [3] | Quantity of cytokines TNF-α [3] | activation of cells via the Toll-like 7 receptor [4] | activation of cells via the Toll-like 8 receptor [5] | adjuvant type [6]
1 | CCCCCCCCCCCC(=O)CC(=O)N[C@H](COCC[C@@H](CCCCCCC)OC(=O)CCCCCCCCCCC)COP(=O)(O)OCCNC(=O)NCCOP(=O)(O)OC[C@@H](COCC[C@@H](CCCCCCC)OC(=O)CCCCCCCCCCC)NC(=O)CC(=O)CCCCCCCCCCC [ER804057, (1R,6R,22R,27R)-1,27-diheptyl-1,27-bisdodecanoyl-9,19-dihydroxy-9,19-dioxido-14-oxo-6,22-bis[(1,3-dioxotetradecyl)amino]-4,8,10,18,20,24-hexaoxa-13,15-diaza-9,19-diphosphoheptacosan] | on average satisfactory | 35% | 46% | 15% | 8349 pg/mL | 22 pg/mL | 393 pg/mL |  |  | 
2 | CCOCc1nc2c(N)nc3ccccc3c2n1CC(C)(C)O [R-848, 4-amino-2-ethoxymethyl-α,α-dimethyl-1-H-imidazo[4,5c]quinoline-1-ethanol] | on average satisfactory | 25% | 34% | 19% | 8263 pg/mL | 288 pg/mL | 1727 pg/mL | activates the cells | activates the cells | adjuvant of the TH1 type
